Laboratory results from article PMC5218480 (PLoS ONE, 2017).

System: MV-4-11 cells
Test: Gene expression microarray analysis (Affymetrix PrimeView) and GSEA
Format: cell-based, human
Parameters: RFU PODN (11730768_x_at) / Fold change /veh PODN (11730768_x_at) / RFU LINC00158 (11744669_a_at) / Fold change /veh LINC00158 (11744669_a_at) / RFU DUSP10 (11751237_a_at) / Fold change /veh DUSP10 (11751237_a_at) / RFU ID3 (11757404_x_at) / Fold change /veh ID3 (11757404_x_at) / RFU PLEKHG5 (11737974_s_at) / Fold change /veh PLEKHG5 (11737974_s_at) / RFU LRRC4B (11730491_at) / Fold change /veh LRRC4B (11730491_at) / RFU GIMAP4 (11747438_a_at) / Fold change /veh GIMAP4 (11747438_a_at) / RFU KRT8 (11758183_x_at) / Fold change /veh KRT8 (11758183_x_at) / RFU CNN1 (11734310_a_at) / Fold change /veh CNN1 (11734310_a_at) / RFU VPS37D (11726825_at) / Fold change /veh VPS37D (11726825_at) / RFU C10orf10 (11716522_x_at) / Fold change /veh C10orf10 (11716522_x_at) / RFU KIR2DL2 /// KIR2DL4 /// KIR2DL5A /// KIR2DL5B /// KIR2DS1 /// KIR2DS2 /// KIR2DS3 /// KIR2DS4 /// KIR3DL3 /// KIR3DL3 /// KIR3DS1 (11738374_at) / Fold change /veh KIR2DL2 /// KIR2DL4 /// KIR2DL5A /// KIR2DL5B /// KIR2DS1 /// KIR2DS2 /// KIR2DS3 /// KIR2DS4 /// KIR3DL3 /// KIR3DL3 /// KIR3DS1 (11738374_at) / RFU C1QL1 (11718748_at) / Fold change /veh C1QL1 (11718748_at) / RFU TMPRSS4 (11747572_a_at) / Fold change /veh TMPRSS4 (11747572_a_at) / RFU HAMP (11756126_x_at) / Fold change /veh HAMP (11756126_x_at) / RFU RNFT2 (11725882_a_at) / Fold change /veh RNFT2 (11725882_a_at) / RFU NR4A2 (11747474_a_at) / Fold change /veh NR4A2 (11747474_a_at) / RFU ABCC12 (11746883_a_at) / Fold change /veh ABCC12 (11746883_a_at) / RFU TMEM136 (11760407_x_at) / Fold change /veh TMEM136 (11760407_x_at) / RFU CLDN22 /// WWC2 (11732394_at) / Fold change /veh CLDN22 /// WWC2 (11732394_at) / RFU HLA-DPB1 (11760878_x_at) / Fold change /veh HLA-DPB1 (11760878_x_at) / RFU SPINT1 (11716480_a_at) / Fold change /veh SPINT1 (11716480_a_at) / RFU GAP43 (11754022_s_at) / Fold change /veh GAP43 (11754022_s_at) / RFU A4GNT (11735810_at) / Fold change /veh A4GNT (11735810_at) / RFU PRB3 (11715151_x_at) / Fold change /veh PRB3 (11715151_x_at) / RFU TUBB4B (11761932_at) / Fold change /veh TUBB4B (11761932_at) / RFU CAPN14 (11732068_a_at) / Fold change /veh CAPN14 (11732068_a_at) / RFU TMCC2 (11721928_a_at) / Fold change /veh TMCC2 (11721928_a_at) / RFU IRGQ (11745062_a_at) / Fold change /veh IRGQ (11745062_a_at) / RFU FAM174B (11720279_a_at) / Fold change /veh FAM174B (11720279_a_at) / RFU TMPRSS4 (11748680_a_at) / Fold change /veh TMPRSS4 (11748680_a_at) / RFU FAM212B (11763350_a_at) / Fold change /veh FAM212B (11763350_a_at) / RFU PLEKHG5 (11743358_a_at) / Fold change /veh PLEKHG5 (11743358_a_at) / RFU ZSCAN30 (11745921_a_at) / Fold change /veh ZSCAN30 (11745921_a_at) / RFU CMKLR1 (11741424_a_at) / Fold change /veh CMKLR1 (11741424_a_at) / RFU LOC101060620 /// MAPK8IP1 (11723275_at) / Fold change /veh LOC101060620 /// MAPK8IP1 (11723275_at) / RFU SPTSSB (11747773_x_at) / Fold change /veh SPTSSB (11747773_x_at) / RFU PRSS12 (11739890_at) / Fold change /veh PRSS12 (11739890_at) / RFU BIN1 (11741810_x_at) / Fold change /veh BIN1 (11741810_x_at) / RFU WNT11 (11732464_a_at) / Fold change /veh WNT11 (11732464_a_at) / RFU C10orf10 (11716521_a_at) / Fold change /veh C10orf10 (11716521_a_at) / RFU C5orf56 (11738089_at) / Fold change /veh C5orf56 (11738089_at) / RFU CYB561 (11721691_x_at) / Fold change /veh CYB561 (11721691_x_at) / RFU ANKRD19P (11752326_a_at) / Fold change /veh ANKRD19P (11752326_a_at) / RFU OR2T12 /// OR2T33 /// OR2T8 (11738714_s_at) / Fold change /veh OR2T12 /// OR2T33 /// OR2T8 (11738714_s_at) / RFU VCAN (11748164_a_at) / Fold change /veh VCAN (11748164_a_at) / RFU JSRP1 (11732532_at) / Fold change /veh JSRP1 (11732532_at) / RFU KRTAP10-11 (11738290_x_at) / Fold change /veh KRTAP10-11 (11738290_x_at) / RFU MYO3A (11730013_a_at) / Fold change /veh MYO3A (11730013_a_at) / RFU EBF3 (11725865_a_at) / Fold change /veh EBF3 (11725865_a_at) / RFU CAMK2N1 (11719241_x_at) / Fold change /veh CAMK2N1 (11719241_x_at) / RFU C5orf56 (11738088_a_at) / Fold change /veh C5orf56 (11738088_a_at) / RFU OLFML3 (11715873_a_at) / Fold change /veh OLFML3 (11715873_a_at) / RFU LOC100653217 /// NTM (11731650_a_at) / Fold change /veh LOC100653217 /// NTM (11731650_a_at) / RFU MAPK11 (11762145_a_at) / Fold change /veh MAPK11 (11762145_a_at) / RFU FIZ1 (11724087_x_at) / Fold change /veh FIZ1 (11724087_x_at) / RFU OASL (11726364_x_at) / Fold change /veh OASL (11726364_x_at) / RFU SOX15 (11748057_x_at) / Fold change /veh SOX15 (11748057_x_at) / RFU CD79A (11719716_a_at) / Fold change /veh CD79A (11719716_a_at) / RFU HIST1H1D (11736915_at) / Fold change /veh HIST1H1D (11736915_at) / RFU CASKIN2 (11723855_a_at) / Fold change /veh CASKIN2 (11723855_a_at) / RFU LOC730098 (11760151_x_at) / Fold change /veh LOC730098 (11760151_x_at) / RFU OR4N2 (11742367_at) / Fold change /veh OR4N2 (11742367_at) / RFU PRRT2 (11749266_a_at) / Fold change /veh PRRT2 (11749266_a_at) / RFU SNX32 (11753110_a_at) / Fold change /veh SNX32 (11753110_a_at) / RFU CDHR5 (11726645_a_at) / Fold change /veh CDHR5 (11726645_a_at) / RFU RCAN1 (11760418_a_at) / Fold change /veh RCAN1 (11760418_a_at) / RFU FAM167A (11723789_a_at) / Fold change /veh FAM167A (11723789_a_at) / RFU FAM26E (11764081_at) / Fold change /veh FAM26E (11764081_at) / RFU ISYNA1 (11749810_s_at) / Fold change /veh ISYNA1 (11749810_s_at) / RFU ACY1 (11761880_at) / Fold change /veh ACY1 (11761880_at) / RFU 11764098_at / Fold change /veh 11764098_at / RFU SAMD14 (11745864_x_at) / Fold change /veh SAMD14 (11745864_x_at) / RFU NPB (11741838_a_at) / Fold change /veh NPB (11741838_a_at) / RFU TMPRSS6 (11731388_a_at) / Fold change /veh TMPRSS6 (11731388_a_at) / RFU KRTAP10-2 (11738614_at) / Fold change /veh KRTAP10-2 (11738614_at) / RFU ARHGAP8 /// PRR5-ARHGAP8 (11727945_x_at) / Fold change /veh ARHGAP8 /// PRR5-ARHGAP8 (11727945_x_at) / RFU KRTAP5-7 /// NADSYN1 (11734609_at) / Fold change /veh KRTAP5-7 /// NADSYN1 (11734609_at) / RFU RASL12 (11751679_a_at) / Fold change /veh RASL12 (11751679_a_at) / RFU CDKN2B (11736163_a_at) / Fold change /veh CDKN2B (11736163_a_at) / RFU PRF1 (11729649_at) / Fold change /veh PRF1 (11729649_at) / RFU, ZNF638 /// ZNF638-IT1 / Fold change vs veh, ZNF638 /// ZNF638-IT1 / RFU, PANK3 / Fold change vs veh, PANK3 / RFU, SH3YL1 / Fold change vs veh, SH3YL1 / RFU, ZEB2 / Fold change vs veh, ZEB2 / RFU, NRIP1 / Fold change vs veh, NRIP1 / RFU, PTTG1IP / Fold change vs veh, PTTG1IP / RFU, CAPN2 / Fold change vs veh, CAPN2 / RFU, MED14 / Fold change vs veh, MED14 / RFU, SNORA58 / Fold change vs veh, SNORA58 / RFU, C1orf63 / Fold change vs veh, C1orf63 / RFU, LRRFIP1 / Fold change vs veh, LRRFIP1 / RFU, NDUFAF7 / Fold change vs veh, NDUFAF7 / RFU, SLC12A2 / Fold change vs veh, SLC12A2 / RFU, IBTK / Fold change vs veh, IBTK / RFU, ESF1 / Fold change vs veh, ESF1 / Fold change vs veh, TMEM50B / RFU, TAOK1 / Fold change vs veh, TAOK1 / RFU, ACBD3 / Fold change vs veh, ACBD3 / RFU, TMA16 / Fold change vs veh, TMA16 / RFU, RWDD3 / Fold change vs veh, RWDD3 / RFU, BCAT1 / Fold change vs veh, BCAT1 / RFU, EDEM3 / Fold change vs veh, EDEM3 / RFU, TMEM33 / Fold change vs veh, TMEM33 / RFU, WDR75 / Fold change vs veh, WDR75 / RFU, AHCTF1 / Fold change vs veh, AHCTF1 / RFU, TFRC / Fold change vs veh, TFRC / RFU, ZDHHC17 / Fold change vs veh, ZDHHC17 / RFU, NOM1 / Fold change vs veh, NOM1 / RFU, ARL8B / Fold change vs veh, ARL8B / RFU, ZBTB11 / Fold change vs veh, ZBTB11 / RFU, TAMM41 / Fold change vs veh, TAMM41 / RFU, KIAA1704 /// LOC100996395 / Fold change vs veh, KIAA1704 /// LOC100996395 / RFU, ING1 / Fold change vs veh, ING1 / RFU, TRMT61B / Fold change vs veh, TRMT61B / RFU, FUBP3 / Fold change vs veh, FUBP3 / RFU, TP53 / Fold change vs veh, TP53 / RFU, TNKS2 / Fold change vs veh, TNKS2 / RFU, ZFP14 / Fold change vs veh, ZFP14 / RFU, ACTR2 / Fold change vs veh, ACTR2 / RFU, PPP3R1 / Fold change vs veh, PPP3R1 / RFU, PIK3R1 / Fold change vs veh, PIK3R1 / RFU, HNRNPA1 / Fold change vs veh, HNRNPA1 / RFU, RNF170 / Fold change vs veh, RNF170 / RFU, ZNF28 / Fold change vs veh, ZNF28 / RFU, RNGTT / Fold change vs veh, RNGTT / RFU, OGT / Fold change vs veh, OGT / RFU, BRD1 / Fold change vs veh, BRD1 / RFU, MARS / Fold change vs veh, MARS / RFU, ZNF655 / Fold change vs veh, ZNF655 / RFU, FAHD1 / Fold change vs veh, FAHD1 / RFU, BDP1 / Fold change vs veh, BDP1 / RFU, LRRCC1 / Fold change vs veh, LRRCC1 / RFU, ARID1A / Fold change vs veh, ARID1A / RFU, ZNF146 / Fold change vs veh, ZNF146 / RFU, ZNF330 / Fold change vs veh, ZNF330 / RFU, GPN3 / Fold change vs veh, GPN3 / RFU, C9orf123 / Fold change vs veh, C9orf123 / RFU, N4BP2L2 / Fold change vs veh, N4BP2L2 / RFU, ARFIP1 / Fold change vs veh, ARFIP1 / RFU, FAM179B / Fold change vs veh, FAM179B / RFU, BCL10 / Fold change vs veh, BCL10 / RFU, UHRF1BP1L / Fold change vs veh, UHRF1BP1L / RFU, BET1 / Fold change vs veh, BET1 / RFU, CNOT2 / Fold change vs veh, CNOT2 / RFU, ZNF268 / Fold change vs veh, ZNF268 / Fold change vs veh, ZNF507 / RFU, DGCR2 / Fold change vs veh, DGCR2 / RFU, WDSUB1 / Fold change vs veh, WDSUB1 / Fold change vs veh, HSP90B1 /// MIR3652 / RFU, ADSS / Fold change vs veh, ADSS / RFU, GK / Fold change vs veh, GK / RFU, ZNF148 / Fold change vs veh, ZNF148 / RFU, TAF9 / Fold change vs veh, TAF9 / RFU, SLC1A5 / Fold change vs veh, SLC1A5 / RFU, SLMO2 / Fold change vs veh, SLMO2 / RFU, ABCC4 / Fold change vs veh, ABCC4 / RFU, LOC101060439 /// RAP1B / Fold change vs veh, LOC101060439 /// RAP1B / RFU, RFX7 / Fold change vs veh, RFX7 / RFU, GTPBP10 / Fold change vs veh, GTPBP10 / RFU, CNEP1R1 / Fold change vs veh, CNEP1R1 / RFU, BIVM-ERCC5 /// ERCC5 / Fold change vs veh, BIVM-ERCC5 /// ERCC5 / RFU, ILF3 / Fold change vs veh, ILF3 / RFU 11762660_at / Fold change /veh 11762660_at / RFU VCAN (11757783_s_at) / Fold change /veh VCAN (11757783_s_at) / RFU DDX43 (11728927_at) / Fold change /veh DDX43 (11728927_at) / RFU KRT8 (11758188_x_at) / Fold change /veh KRT8 (11758188_x_at) / RFU NKD1 (11759106_at) / Fold change /veh NKD1 (11759106_at) / RFU SRD5A1 (11742802_a_at) / Fold change /veh SRD5A1 (11742802_a_at) / RFU TPSAB1 /// TPSB2 (11721975_s_at) / Fold change /veh TPSAB1 /// TPSB2 (11721975_s_at) / RFU GSTM3 (11746129_a_at) / Fold change /veh GSTM3 (11746129_a_at) / RFU IL23R (11737362_x_at) / Fold change /veh IL23R (11737362_x_at) / RFU TMEM51 (11727254_a_at) / Fold change /veh TMEM51 (11727254_a_at) / RFU PIWIL2 (11732686_x_at) / Fold change /veh PIWIL2 (11732686_x_at) / RFU ORM1 (11744905_x_at) / Fold change /veh ORM1 (11744905_x_at) / RFU CCDC152 (11743942_at) / Fold change /veh CCDC152 (11743942_at) / RFU ECM1 (11717891_a_at) / Fold change /veh ECM1 (11717891_a_at) / RFU IL23R (11748794_a_at) / Fold change /veh IL23R (11748794_a_at) / RFU TNFAIP8L3 (11732012_x_at) / Fold change /veh TNFAIP8L3 (11732012_x_at) / RFU MBOAT4 (11741988_at) / Fold change /veh MBOAT4 (11741988_at) / RFU 11764193_at / Fold change /veh 11764193_at / RFU TMEM53 (11763286_at) / Fold change /veh TMEM53 (11763286_at) / RFU MAGEB2 (11727129_at) / Fold change /veh MAGEB2 (11727129_at) / RFU TMEM200A (11744735_a_at) / Fold change /veh TMEM200A (11744735_a_at) / RFU CCDC152 (11751479_a_at) / Fold change /veh CCDC152 (11751479_a_at) / RFU FAM211A (11726209_a_at) / Fold change /veh FAM211A (11726209_a_at) / RFU RGS16 (11746705_a_at) / Fold change /veh RGS16 (11746705_a_at) / RFU VCAN (11755009_s_at) / Fold change /veh VCAN (11755009_s_at) / RFU RHOB (11743442_s_at) / Fold change /veh RHOB (11743442_s_at) / RFU RGS16 (11720943_a_at) / Fold change /veh RGS16 (11720943_a_at) / RFU RGS16 (11720944_at) / Fold change /veh RGS16 (11720944_at) / RFU, VPS4B / Fold change vs veh, VPS4B / RFU, CREB1 / Fold change vs veh, CREB1 / RFU, DNAJC13 / Fold change vs veh, DNAJC13 / RFU, GNAQ / Fold change vs veh, GNAQ / RFU, CDK5R1 / Fold change vs veh, CDK5R1 / RFU, ZRANB3 / Fold change vs veh, ZRANB3 / RFU, CUL4A / Fold change vs veh, CUL4A / RFU, CCNY / Fold change vs veh, CCNY / RFU, UFL1 / Fold change vs veh, UFL1 / RFU, COG3 / Fold change vs veh, COG3 / RFU, DIAPH2 / Fold change vs veh, DIAPH2 / RFU, SKA2 / Fold change vs veh, SKA2 / RFU, AFF3 / Fold change vs veh, AFF3 / RFU, LMF1 / Fold change vs veh, LMF1 / RFU, IPO11 / Fold change vs veh, IPO11 / RFU, DFFB / Fold change vs veh, DFFB / RFU, FOXP1 / Fold change vs veh, FOXP1 / RFU, CARD8 / Fold change vs veh, CARD8 / RFU, STRN3 / Fold change vs veh, STRN3 / RFU, ADK / Fold change vs veh, ADK / RFU, RASSF2 / Fold change vs veh, RASSF2 / RFU, WIPF1 / Fold change vs veh, WIPF1 / RFU, LARP1B / Fold change vs veh, LARP1B / RFU, RASA1 / Fold change vs veh, RASA1 / RFU, RB1 / Fold change vs veh, RB1 / RFU, PPFIA1 / Fold change vs veh, PPFIA1 / RFU, MAT2A / Fold change vs veh, MAT2A / RFU, CCT5 / Fold change vs veh, CCT5 / RFU, WDR92 / Fold change vs veh, WDR92 / RFU, CUX1 / Fold change vs veh, CUX1 / RFU, TTC7A / Fold change vs veh, TTC7A / RFU, TMEM135 / Fold change vs veh, TMEM135 / RFU, DEPTOR / Fold change vs veh, DEPTOR / RFU, CPM / Fold change vs veh, CPM / RFU, DNAJB6 / Fold change vs veh, DNAJB6 / RFU, CACNA2D3 / Fold change vs veh, CACNA2D3 / RFU, DTX4 / Fold change vs veh, DTX4 / RFU, TFCP2 / Fold change vs veh, TFCP2 / RFU, GMCL1 /// GMCL1P1 / Fold change vs veh, GMCL1 /// GMCL1P1 / RFU, AEBP2 / Fold change vs veh, AEBP2 / RFU, SNHG1 /// SNORD22 /// SNORD25 /// SNORD26 /// SNORD27 /// SNORD28 /// SNORD29 /// SNORD31 / Fold change vs veh, SNHG1 /// SNORD22 /// SNORD25 /// SNORD26 /// SNORD27 /// SNORD28 /// SNORD29 /// SNORD31 / Fold change (Aza/veh), C12orf56 (ProbeSet 11735607_a_at) / Fold change (ACY-1035/veh), C12orf56 (ProbeSet 11735607_a_at) / Fold change (Aza/veh), FGFR1OP (ProbeSet 11751329_s_at) / Fold change (ACY-1035/veh), FGFR1OP (ProbeSet 11751329_s_at) / Fold change (Aza/veh), VPS36 (ProbeSet 11739960_a_at) / Fold change (ACY-1035/veh), VPS36 (ProbeSet 11739960_a_at) / RFU SYPL1 (11715823_x_at) / Fold change /veh SYPL1 (11715823_x_at) / RFU IGFBP7 (11715501_s_at) / Fold change /veh IGFBP7 (11715501_s_at) / RFU REEP3 (11722064_at) / Fold change /veh REEP3 (11722064_at) / RFU IGLL1 (11728026_x_at) / Fold change /veh IGLL1 (11728026_x_at): dose or concentration left out as unconfirmed
Settings: ProbeSet 11732154_at; LIST B

## Nc1ccc(-c2cccs2)cc1NC(=O)c1ccc2c(c1)cc(C1CC1)n2CCN1CCOCC1 [ACY-1035]
  Fold change vs veh, OGT: 1.05
